From ChEMBL document CHEMBL5696439 (Cancer Res, 2010)
The source made the active and inactive calls. The rule behind the calls is not given here.

Columns and labels:
[1] = molecular target: Fibroblast growth factor receptor 2 (Homo sapiens) (UniProt P21802); test: Inhibition of recombinant human His-tagged FGFR2 (403-822 residues) expressed in baculovirus expression system at 2 uM using Tyr 04 as substrate measured after 1 hr by Z'-LYTE assay relative to control
[2] = molecular target: Epidermal growth factor receptor (Homo sapiens) (UniProt P00533); test: Inhibition of recombinant human GST-tagged EGFR (668-1210 residues) expressed in insect cells at 2 uM using Tyr 04 as substrate measured after 1 hr by Z'-LYTE assay relative to control; details: Insect cell
Chain of Epidermal growth factor receptor (Homo sapiens) (P00533 whole entry, the tested form may be a part): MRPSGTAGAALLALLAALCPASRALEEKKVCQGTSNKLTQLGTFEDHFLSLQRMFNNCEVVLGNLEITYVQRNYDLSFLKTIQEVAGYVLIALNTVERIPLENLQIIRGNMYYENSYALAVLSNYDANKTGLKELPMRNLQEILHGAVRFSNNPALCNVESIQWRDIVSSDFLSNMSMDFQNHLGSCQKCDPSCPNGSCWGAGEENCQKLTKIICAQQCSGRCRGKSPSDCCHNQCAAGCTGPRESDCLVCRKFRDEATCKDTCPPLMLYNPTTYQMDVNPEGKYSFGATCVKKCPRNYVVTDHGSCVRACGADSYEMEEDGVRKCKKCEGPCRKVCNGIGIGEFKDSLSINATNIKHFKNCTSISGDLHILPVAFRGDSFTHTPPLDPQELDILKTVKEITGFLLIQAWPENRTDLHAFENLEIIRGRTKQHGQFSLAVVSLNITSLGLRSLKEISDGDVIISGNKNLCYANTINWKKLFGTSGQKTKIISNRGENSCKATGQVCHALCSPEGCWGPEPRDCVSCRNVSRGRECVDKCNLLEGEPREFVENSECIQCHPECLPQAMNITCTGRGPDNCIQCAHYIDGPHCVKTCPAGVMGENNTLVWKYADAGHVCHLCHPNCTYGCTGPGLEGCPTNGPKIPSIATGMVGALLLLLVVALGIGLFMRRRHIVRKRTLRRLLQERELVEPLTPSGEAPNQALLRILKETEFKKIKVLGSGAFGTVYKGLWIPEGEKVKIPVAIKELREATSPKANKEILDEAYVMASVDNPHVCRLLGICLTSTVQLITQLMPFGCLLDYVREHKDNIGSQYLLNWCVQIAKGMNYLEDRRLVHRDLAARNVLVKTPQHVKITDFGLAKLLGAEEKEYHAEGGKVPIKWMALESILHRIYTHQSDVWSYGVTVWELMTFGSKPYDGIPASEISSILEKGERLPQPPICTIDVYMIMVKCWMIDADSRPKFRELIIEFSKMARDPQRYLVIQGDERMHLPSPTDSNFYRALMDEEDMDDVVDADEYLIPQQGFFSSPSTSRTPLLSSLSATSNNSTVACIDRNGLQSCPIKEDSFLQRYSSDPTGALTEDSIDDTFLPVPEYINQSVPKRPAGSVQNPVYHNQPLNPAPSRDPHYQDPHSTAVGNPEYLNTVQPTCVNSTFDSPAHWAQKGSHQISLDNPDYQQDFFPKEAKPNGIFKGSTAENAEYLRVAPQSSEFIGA

A549 [3] = test: Induction of apoptosis in human A549 cells assessed as increase in G1 phase at 1 micromol/L incubated for 24 hrs by FACS analysis; type: functional, cell-based; details: dose 1.0 µmol/L
A549 [4] = test: Antitumor activity against human A549 cells xenografted in female nude mouse model assessed as suppression in tumor growth at 25 mg/kg, po qd administered as 5 days on/2 days off regimen for 4 cycles relative to control; type: functional; details: time 28 day
[5] = molecular target: Tyrosine-protein kinase JAK1 (Homo sapiens) (UniProt P23458); test: Inhibition of recombinant human GST-tagged JAK1 (866-1154 residues) expressed in insect cells at 2 uM using Tyr 06 as substrate measured after 1 hr by Z'-LYTE assay relative to control; details: Insect cell
MDA-MB-361 [6] = test: Antitumor activity against human MDA-MB-361 cells xenografted in female nude mouse model assessed as suppression in P-S6K at T389 level at 50 mg/kg, po qd administered as 5 days on/2 days off regimen for 4 cycles by immunoblot analysis; type: functional, organism-based; details: time 28.0 day
A498 = test: Antiproliferative activity against human A498 cells assessed as reduction in cell size at 1 micromol/L incubated for 48 hrs by Flow cytometry analysis relative to control; type: functional; design: scale not given: the % may be the effect or the level left; details: dose 1 µmol/L, at 1 µM
MDA-MB-231 = test: Antiproliferative activity against human MDA-MB-231 cells assessed as cell growth inhibition incubated for 24 hrs by MTS assay; type: functional, cell-based; details: MDA-MB-231, 24 h
[7] = molecular target: cAMP-dependent protein kinase catalytic subunit PRKX (Homo sapiens) (UniProt P51817); test: Inhibition of recombinant human full length GST-tagged PRKX expressed in insect cells at 2 uM using Ser/Thr 01 as substrate measured after 1 hr by Z'-LYTE assay relative to control; details: Insect cell
Chain of cAMP-dependent protein kinase catalytic subunit PRKX (Homo sapiens) (P51817 whole entry): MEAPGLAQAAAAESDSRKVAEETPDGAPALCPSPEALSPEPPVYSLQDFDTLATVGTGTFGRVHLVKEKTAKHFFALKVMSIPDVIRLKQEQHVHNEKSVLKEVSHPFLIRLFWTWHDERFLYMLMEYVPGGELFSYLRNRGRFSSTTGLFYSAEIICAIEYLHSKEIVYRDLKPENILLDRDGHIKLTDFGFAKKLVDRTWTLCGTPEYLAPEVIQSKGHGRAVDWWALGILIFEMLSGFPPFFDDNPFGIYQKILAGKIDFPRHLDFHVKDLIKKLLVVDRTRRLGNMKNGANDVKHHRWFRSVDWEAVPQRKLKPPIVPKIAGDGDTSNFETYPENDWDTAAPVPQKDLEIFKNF

MDA-MB-361 [8] = test: Antitumor activity against human MDA-MB-361 cells xenografted in female nude mouse model assessed as substantial regression in tumor at 50 mg/kg, po qd administered as 5 days on/2 days off regimen for 4 cycles; type: functional, organism-based; details: time 28.0 day
[9] = molecular target: Aurora kinase C (Homo sapiens) (UniProt Q9UQB9); test: Inhibition of recombinant human full-length GST-tagged AURKC expressed in insect cells at 2 uM using Ser/Thr 19 as substrate measured after 1 hr by Z'-LYTE assay relative to control; details: Insect cell
HCT-116 = test: Antitumor activity against human HCT-116 cells xenografted in female nude mouse model assessed as suppression in P-S6K at T389 level at 50 mg/kg, iv administered once a week and measured at least 8 hrs by immunoblot analysis; type: functional, organism-based
[10] = molecular target: Fibroblast growth factor receptor 3 (Homo sapiens) (UniProt P22607); test: Inhibition of recombinant human His-tagged FGFR3 (399-806 residues) expressed in insect cells at 2 uM using Tyr 04 as substrate measured after 1 hr by Z'-LYTE assay relative to control; details: Insect cell
[11] = molecular target: NT-3 growth factor receptor (Homo sapiens) (UniProt Q16288); test: Inhibition of recombinant human His-tagged NTRK3 (510-825 residues) expressed in baculovirus expression system at 2 uM using Tyr 01 as substrate measured after 1 hr by Z'-LYTE assay relative to control
Chain of NT-3 growth factor receptor (Homo sapiens) (Q16288 32-839 limits assumed): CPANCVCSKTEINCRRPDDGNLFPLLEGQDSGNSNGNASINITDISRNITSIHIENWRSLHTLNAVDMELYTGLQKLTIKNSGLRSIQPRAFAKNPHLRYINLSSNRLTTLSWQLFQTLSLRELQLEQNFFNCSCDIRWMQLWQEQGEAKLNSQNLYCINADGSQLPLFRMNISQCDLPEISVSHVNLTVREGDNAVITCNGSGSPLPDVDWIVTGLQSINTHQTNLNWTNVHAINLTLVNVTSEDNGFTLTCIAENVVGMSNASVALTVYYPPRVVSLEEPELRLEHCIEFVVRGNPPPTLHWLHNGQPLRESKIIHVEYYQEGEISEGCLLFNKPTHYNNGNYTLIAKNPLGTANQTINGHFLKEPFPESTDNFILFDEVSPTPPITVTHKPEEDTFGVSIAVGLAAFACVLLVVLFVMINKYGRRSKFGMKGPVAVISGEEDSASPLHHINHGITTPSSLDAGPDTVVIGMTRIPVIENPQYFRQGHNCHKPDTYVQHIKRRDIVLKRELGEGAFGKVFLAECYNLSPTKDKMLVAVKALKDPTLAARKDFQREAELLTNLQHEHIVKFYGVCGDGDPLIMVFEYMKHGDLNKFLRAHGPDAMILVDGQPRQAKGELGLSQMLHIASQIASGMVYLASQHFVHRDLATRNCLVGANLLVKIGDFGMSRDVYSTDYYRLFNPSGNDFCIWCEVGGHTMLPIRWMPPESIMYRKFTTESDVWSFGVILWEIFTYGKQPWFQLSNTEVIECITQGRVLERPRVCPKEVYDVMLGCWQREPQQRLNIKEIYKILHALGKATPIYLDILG

[12] = molecular target: Serine/threonine-protein kinase 4 (Homo sapiens) (UniProt Q13043); test: Inhibition of recombinant human full length GST-tagged STK4 expressed in insect cells at 2 uM using Ser/Thr 07 as substrate measured after 1 hr by Z'-LYTE assay relative to control; details: Insect cell
Chain of Serine/threonine-protein kinase 4 (Homo sapiens) (Q13043 whole entry, the tested form may be a part): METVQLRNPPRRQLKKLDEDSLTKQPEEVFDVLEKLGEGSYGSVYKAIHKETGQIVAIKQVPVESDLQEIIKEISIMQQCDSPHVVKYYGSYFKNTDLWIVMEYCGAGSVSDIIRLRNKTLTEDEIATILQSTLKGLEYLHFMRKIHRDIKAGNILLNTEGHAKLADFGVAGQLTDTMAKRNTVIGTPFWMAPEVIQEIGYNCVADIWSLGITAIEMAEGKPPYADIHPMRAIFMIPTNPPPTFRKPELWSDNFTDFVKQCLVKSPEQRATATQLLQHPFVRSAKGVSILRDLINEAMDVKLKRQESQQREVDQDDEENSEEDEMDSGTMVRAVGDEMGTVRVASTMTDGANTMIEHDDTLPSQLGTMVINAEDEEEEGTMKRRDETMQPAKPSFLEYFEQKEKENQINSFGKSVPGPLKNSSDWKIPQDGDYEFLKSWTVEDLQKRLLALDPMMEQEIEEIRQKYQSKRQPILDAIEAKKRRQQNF

[13] = molecular target: Vascular endothelial growth factor receptor 1 (Homo sapiens) (UniProt P17948); test: Inhibition of recombinant human GST-tagged FLT1 (781-1338 residues) expressed in insect cells at 2 uM using Tyr 04 as substrate measured after 1 hr by Z'-LYTE assay relative to control; details: Insect cell
[14] = molecular target: Mitogen-activated protein kinase kinase kinase kinase 4 (Homo sapiens) (UniProt O95819); test: Inhibition of recombinant human GST-tagged MAP4K4 (1-328 residues) expressed in insect cells at 2 uM using Ser/Thr 07 as substrate measured after 1 hr by Z'-LYTE assay relative to control; details: Insect cell
[15] = molecular target: Receptor tyrosine-protein kinase erbB-4 (Homo sapiens) (UniProt Q15303); test: Inhibition of recombinant human GST-tagged ERBB4 (708-993 residues) expressed in insect cells at 2 uM using Tyr 01 as substrate measured after 1 hr by Z'-LYTE assay relative to control; details: Insect cell
[16] = molecular target: G protein-coupled receptor kinase 4 (Homo sapiens) (UniProt P32298); test: Inhibition of recombinant human full-length GST-tagged GRK4 expressed in insect cells at 2 uM using Ser/Thr 16 as substrate measured after 1 hr by Z'-LYTE assay relative to control; details: Insect cell
MDA-MB-361 [17] = test: Induction of apoptosis in human MDA-MB-361 cells assessed as induction in cell death at 30 nmol/L incubated for 48 hrs by FACS analysis relative to control; type: functional
[18] = molecular target: Dual specificity mitogen-activated protein kinase kinase 2 (Homo sapiens) (UniProt P36507); test: Inhibition of recombinant human full length His-tagged MAP2K2 expressed in baculovirus expression system at 2 uM using Ser/Thr 03 as substrate measured after 1 hr by Z'-LYTE assay relative to control
Chain of Dual specificity mitogen-activated protein kinase kinase 2 (Homo sapiens) (P36507 whole entry): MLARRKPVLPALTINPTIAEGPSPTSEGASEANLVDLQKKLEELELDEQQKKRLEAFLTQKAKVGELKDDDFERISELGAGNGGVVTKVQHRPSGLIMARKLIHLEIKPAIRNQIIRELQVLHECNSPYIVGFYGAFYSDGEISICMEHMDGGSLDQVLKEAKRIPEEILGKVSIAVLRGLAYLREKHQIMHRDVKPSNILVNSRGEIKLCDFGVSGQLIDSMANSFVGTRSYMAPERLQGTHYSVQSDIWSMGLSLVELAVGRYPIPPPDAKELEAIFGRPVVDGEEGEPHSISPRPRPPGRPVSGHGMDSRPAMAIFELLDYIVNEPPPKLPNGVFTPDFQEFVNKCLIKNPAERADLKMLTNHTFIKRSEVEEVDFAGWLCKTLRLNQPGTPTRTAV

MDA-MB-361 [19] = test: Inhibition of protein synthesis in human MDA-MB-361 cells at 3 micromol/L incubated for 3 hrs by [3H] methionine incorporation based scintillation counter analysis relative to control; type: functional; details: MDA-MB-361, 3 h, dose 3 µmol/L
[20] = molecular target: Tyrosine-protein kinase FRK (Homo sapiens) (UniProt P42685); test: Inhibition of recombinant human full-length GST-tagged FRK expressed in baculovirus expression system at 2 uM using Tyr 01 as substrate measured after 1 hr by Z'-LYTE assay relative to control
[21] = molecular target: Serine/threonine-protein kinase Nek9 (Homo sapiens) (UniProt Q8TD19); test: Inhibition of recombinant human GST-tagged NEK9 (347-732 residues) expressed in insect cells at 2 uM using Ser/Thr 07 as substrate measured after 1 hr by Z'-LYTE assay relative to control; details: Insect cell
Chain of Serine/threonine-protein kinase Nek9 (Homo sapiens) (Q8TD19 whole entry, the tested form may be a part): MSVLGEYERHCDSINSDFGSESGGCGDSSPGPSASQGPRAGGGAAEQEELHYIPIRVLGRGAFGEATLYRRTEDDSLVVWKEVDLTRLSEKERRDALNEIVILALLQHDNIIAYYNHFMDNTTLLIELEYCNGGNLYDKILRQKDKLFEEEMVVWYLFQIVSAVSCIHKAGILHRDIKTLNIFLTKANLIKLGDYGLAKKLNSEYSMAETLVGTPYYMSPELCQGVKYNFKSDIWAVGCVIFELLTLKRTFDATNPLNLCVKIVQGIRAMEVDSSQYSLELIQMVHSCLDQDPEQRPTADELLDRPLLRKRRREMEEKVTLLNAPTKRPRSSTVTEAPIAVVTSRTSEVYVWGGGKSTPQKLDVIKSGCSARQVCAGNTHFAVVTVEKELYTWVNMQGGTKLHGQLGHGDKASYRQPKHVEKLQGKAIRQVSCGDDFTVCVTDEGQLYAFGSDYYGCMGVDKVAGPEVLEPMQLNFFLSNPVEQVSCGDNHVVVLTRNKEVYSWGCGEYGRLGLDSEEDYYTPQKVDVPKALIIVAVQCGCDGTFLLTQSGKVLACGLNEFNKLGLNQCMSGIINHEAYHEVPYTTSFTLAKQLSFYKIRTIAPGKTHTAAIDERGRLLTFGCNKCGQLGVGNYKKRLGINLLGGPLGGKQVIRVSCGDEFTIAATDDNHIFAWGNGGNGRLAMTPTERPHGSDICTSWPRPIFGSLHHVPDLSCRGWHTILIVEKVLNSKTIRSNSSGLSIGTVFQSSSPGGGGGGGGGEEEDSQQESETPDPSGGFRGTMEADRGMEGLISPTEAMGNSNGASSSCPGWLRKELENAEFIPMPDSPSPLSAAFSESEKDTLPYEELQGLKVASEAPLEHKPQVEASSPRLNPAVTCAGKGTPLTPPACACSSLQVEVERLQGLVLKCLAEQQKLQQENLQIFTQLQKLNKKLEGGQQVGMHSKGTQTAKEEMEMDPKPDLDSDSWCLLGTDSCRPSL

[22] = molecular target: Protein kinase C beta type (Homo sapiens) (UniProt P05771); test: Inhibition of recombinant human full length GST-tagged PRKCB1 expressed in baculovirus expression system at 2 uM using Ser/Thr 07 as substrate measured after 1 hr by Z'-LYTE assay relative to control
Chain of Protein kinase C beta type (Homo sapiens) (P05771 2-671 limits assumed): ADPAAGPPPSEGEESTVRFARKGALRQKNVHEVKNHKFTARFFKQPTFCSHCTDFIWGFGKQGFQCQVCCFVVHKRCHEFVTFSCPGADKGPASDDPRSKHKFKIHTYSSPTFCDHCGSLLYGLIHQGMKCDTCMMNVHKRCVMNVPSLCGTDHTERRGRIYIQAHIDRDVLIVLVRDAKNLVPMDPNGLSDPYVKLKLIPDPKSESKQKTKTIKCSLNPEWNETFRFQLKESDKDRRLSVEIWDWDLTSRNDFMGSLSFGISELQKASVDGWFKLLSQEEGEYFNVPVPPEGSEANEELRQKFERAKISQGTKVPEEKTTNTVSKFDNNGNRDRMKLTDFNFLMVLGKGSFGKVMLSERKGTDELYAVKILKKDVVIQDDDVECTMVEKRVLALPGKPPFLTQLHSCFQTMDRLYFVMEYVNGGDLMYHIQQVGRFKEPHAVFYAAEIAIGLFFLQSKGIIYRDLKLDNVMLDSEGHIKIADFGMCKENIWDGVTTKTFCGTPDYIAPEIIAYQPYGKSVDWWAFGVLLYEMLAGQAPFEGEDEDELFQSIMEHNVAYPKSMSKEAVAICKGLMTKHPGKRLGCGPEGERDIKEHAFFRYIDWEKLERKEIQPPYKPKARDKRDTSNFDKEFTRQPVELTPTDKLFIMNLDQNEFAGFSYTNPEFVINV

[23] = molecular target: Proto-oncogene tyrosine-protein kinase Src (Homo sapiens) (UniProt P12931); test: Inhibition of recombinant human full length SRC N1 expressed in baculovirus expression system at 2 uM using Tyr 02 as substrate measured after 1 hr by Z'-LYTE assay relative to control

## CNC(=O)Nc1ccc(-c2nc(N3CC4CCC(C3)O4)c3cnn(C4CCC5(CC4)OCCO5)c3n2)cc1
[1]
  inhibition: 4%
[2]
  inhibition: 1%
A549 [3]
  Activity: Active
A549 [4]
  Activity: 100%
[5]
  inhibition: 5%
MDA-MB-361 [6]
  Activity: Active
A498
  Activity: 83%
MDA-MB-231
  IC50: 60 nM
[7]
  inhibition: 5%
MDA-MB-361 [8]
  Activity: Active
[9]
  inhibition: 4%
HCT-116
  Activity: Active
[10]
  inhibition: 5%
[11]
  inhibition: 5%
[12]
  inhibition: 12%
[13]
  inhibition: 8%
[14]
  inhibition: 10%
[15]
  inhibition: 3%
[16]
  inhibition: -4%
MDA-MB-361 [17]
  Activity: 13%
[18]
  inhibition: 2%
MDA-MB-361 [19]
  inhibition at 3 µM: ~50%
[20]
  inhibition: 3%
[21]
  inhibition: -2%
[22]
  inhibition: 11%
[23]
  inhibition: 7%
